This data set relates to CCRIS mutagenicity, Ames/micronucleus/aberration tests. Kind of data set: CCRIS mutagenicity studies.
[1] abbreviates: Test System: AMES SALMONELLA TYPHIMURIUM, Strain/Indicator: TA98, Metabolic Activation: NONE, Method: PREINCUBATION
Where [2] appears, read: Test System: AMES SALMONELLA TYPHIMURIUM, Strain/Indicator: TA100, Metabolic Activation: NONE, Method: PREINCUBATION
Where [3] appears, read: Test System: AMES SALMONELLA TYPHIMURIUM, Strain/Indicator: TA98, Metabolic Activation: NONE, Method: STANDARD PLATE.
Setting [4] is: Test System: AMES SALMONELLA TYPHIMURIUM, Strain/Indicator: TA98, Metabolic Activation: RAT, LIVER, S-9, AROCLOR 1254, Method: STANDARD PLATE.
Where [5] appears, read: Test System: AMES SALMONELLA TYPHIMURIUM, Strain/Indicator: TA100, Metabolic Activation: NONE, Method: STANDARD PLATE.
[6] abbreviates: Test System: AMES SALMONELLA TYPHIMURIUM, Strain/Indicator: TA100, Metabolic Activation: RAT, LIVER, S-9, AROCLOR 1254, Method: STANDARD PLATE.

Activity calls are given as the source filed them. The rule behind the calls is not given here.

Mutagenic call data for nine molecules are collected here from PubChem BioAssay AID1259407 (Chemical Carcinogenesis Research Information System (CCRIS), 2018).

As to `CCOc1ccc(N)cc1N`, the mutagenic call is, setting by setting: (Test System: AMES SALMONELLA TYPHIMURIUM, Strain/Indicator: TA97, Metabolic Activation: RAT, LIVER, S-9, AROCLOR 1254 (4 OR 10%), Method: STANDARD PLATE) “active; positive”; (Test System: AMES SALMONELLA TYPHIMURIUM, Strain/Indicator: TA1537, Metabolic Activation: RAT, LIVER, S-9, AROCLOR 1254 (4 OR 10%), Method: STANDARD PLATE) “active; positive”; (Test System: AMES SALMONELLA TYPHIMURIUM, Strain/Indicator: TA1538, Metabolic Activation: RAT, LIVER, S-9, AROCLOR 1254 (4 OR 10%), Method: STANDARD PLATE) “active; positive”.

Turning to `Cc1ccc(C(C)(C)C)cc1`, the mutagenic call reads like this: (Test System: AMES SALMONELLA TYPHIMURIUM, Strain/Indicator: TA98, Metabolic Activation: HAMSTER, LIVER, S-9, AROCLOR 1254 (10%), Method: PREINCUBATION) “inactive; negative”; under setting [1], “inactive; negative”; (Test System: AMES SALMONELLA TYPHIMURIUM, Strain/Indicator: TA98, Metabolic Activation: RAT, LIVER, S-9, AROCLOR 1254 (10%), Method: PREINCUBATION) “inactive; negative”; (Test System: AMES SALMONELLA TYPHIMURIUM, Strain/Indicator: TA100, Metabolic Activation: HAMSTER, LIVER, S-9, AROCLOR 1254 (10%), Method: PREINCUBATION) “inactive; negative”; under setting [2], “inactive; negative”; (Test System: AMES SALMONELLA TYPHIMURIUM, Strain/Indicator: TA100, Metabolic Activation: RAT, LIVER, S-9, AROCLOR 1254 (10%), Method: PREINCUBATION) “inactive; negative”. Besides, the mutagenic call reads like this: (Test System: AMES SALMONELLA TYPHIMURIUM, Strain/Indicator: TA1535, Metabolic Activation: HAMSTER, LIVER, S-9, AROCLOR 1254 (10%), Method: PREINCUBATION) “inactive; negative”; (Test System: AMES SALMONELLA TYPHIMURIUM, Strain/Indicator: TA1535, Metabolic Activation: NONE, Method: PREINCUBATION) “inactive; negative”; (Test System: AMES SALMONELLA TYPHIMURIUM, Strain/Indicator: TA1535, Metabolic Activation: RAT, LIVER, S-9, AROCLOR 1254 (10%), Method: PREINCUBATION) “inactive; negative”; (Test System: AMES SALMONELLA TYPHIMURIUM, Strain/Indicator: TA1537, Metabolic Activation: HAMSTER, LIVER, S-9, AROCLOR 1254 (10%), Method: PREINCUBATION) “inactive; negative”; (Test System: AMES SALMONELLA TYPHIMURIUM, Strain/Indicator: TA1537, Metabolic Activation: NONE, Method: PREINCUBATION) “inactive; negative”; (Test System: AMES SALMONELLA TYPHIMURIUM, Strain/Indicator: TA1537, Metabolic Activation: RAT, LIVER, S-9, AROCLOR 1254 (10%), Method: PREINCUBATION) “inactive; negative”.

Consider `CCCCCCCCOC[N+](C)(C)Cc1ccccc1`, for which the mutagenic call is “inactive; negative” (Test System: BACILLUS SUBTILIS, Strain/Indicator: H17/REC, Metabolic Activation: NONE, Method: STANDARD PLATE) and “inactive; negative” (Test System: BACILLUS SUBTILIS, Strain/Indicator: M45, Metabolic Activation: NONE, Method: STANDARD PLATE).

Regarding `CC(=O)c1cccn1[N+](=O)[O-]`, the mutagenic call under setting [3] was “active; positive”, the mutagenic call under setting [4] was “active; positive”, the mutagenic call under setting [5] was “active; positive” and the mutagenic call under setting [6] was “active; positive”.

Take `COc1cc(N)c([N+](=O)[O-])cc1N`: the mutagenic call runs as follows: under setting [3], “active; positive”; under setting [4], “active; positive”; under setting [5], “inactive; negative”; under setting [6], “active; positive”; (Test System: AMES SALMONELLA TYPHIMURIUM, Strain/Indicator: TA1535, Metabolic Activation: NONE, Method: STANDARD PLATE) “inactive; negative”; (Test System: AMES SALMONELLA TYPHIMURIUM, Strain/Indicator: TA1535, Metabolic Activation: RAT, LIVER, S-9, AROCLOR 1254, Method: STANDARD PLATE) “inactive; negative”. For the same molecule, the mutagenic call (Test System: AMES SALMONELLA TYPHIMURIUM, Strain/Indicator: TA1537, Metabolic Activation: NONE, Method: STANDARD PLATE) is “active; positive”; the mutagenic call (Test System: AMES SALMONELLA TYPHIMURIUM, Strain/Indicator: TA1537, Metabolic Activation: RAT, LIVER, S-9, AROCLOR 1254, Method: STANDARD PLATE) was “active; positive”; the mutagenic call (Test System: AMES SALMONELLA TYPHIMURIUM, Strain/Indicator: TA1538, Metabolic Activation: NONE, Method: STANDARD PLATE) is “active; positive”; the mutagenic call (Test System: AMES SALMONELLA TYPHIMURIUM, Strain/Indicator: TA1538, Metabolic Activation: RAT, LIVER, S-9, AROCLOR 1254, Method: STANDARD PLATE) was “active; positive”.

In the case of `c1ccc2c(c1)C1=c3c-2cc2cccc4ccc(c3c42)C2OC12` (stereo not given), under setting [5], the mutagenic call is “active; positive”.

Turning to `CCOC(=O)C(C)(C)Oc1ccc(Cl)cc1`, the mutagenic call is “active; positive” (End Point: In vitro micronucleus, Test System: Mouse lymphoma L5178Y cells, Metabolic Activation: None); “inactive; negative” (Test System: AMES SALMONELLA TYPHIMURIUM, Strain/Indicator: TA100(FR1), Metabolic Activation: NONE, Method: STANDARD PLATE); “inactive; negative” (Test System: AMES SALMONELLA TYPHIMURIUM, Strain/Indicator: TA100(FR1), Metabolic Activation: RAT, LIVER, S-9, PHENOBARBITAL AND 3-METHYLCHOLANTHRENE, Method: STANDARD PLATE); “inactive; negative” under setting [5]; “inactive; negative” (Test System: AMES SALMONELLA TYPHIMURIUM, Strain/Indicator: TA100, Metabolic Activation: RAT, LIVER, S-9, PHENOBARBITAL AND 3-METHYLCHOLANTHRENE, Method: STANDARD PLATE); “inactive; negative” (Test System: AMES SALMONELLA TYPHIMURIUM, Strain/Indicator: TA102, Metabolic Activation: RAT LIVER S-9, PHENOBARBITAL AND 5,6-BENZOFLAVONE, Method: STANDARD PLATE). In addition, the mutagenic call (Test System: AMES SALMONELLA TYPHIMURIUM, Strain/Indicator: TA2638, Metabolic Activation: RAT LIVER S-9, PHENOBARBITAL AND 5,6-BENZOFLAVONE, Method: STANDARD PLATE) was “inactive; negative”; the mutagenic call (Test System: CHINESE HAMSTER V-79, Strain/Indicator: V-79/6-THIOGUANINE, Metabolic Activation: NONE) is “inactive; negative”; the mutagenic call (Test System: CHINESE HAMSTER V-79, Strain/Indicator: V-79/6-THIOGUANINE, Metabolic Activation: RAT, LIVER, HEPATOCYTES) was “inactive; negative”; the mutagenic call (Test System: CHINESE HAMSTER V-79, Strain/Indicator: V-79/OUABAIN, Metabolic Activation: NONE) was “inactive; negative”; the mutagenic call (Test System: CHINESE HAMSTER V-79, Strain/Indicator: V-79/OUABAIN, Metabolic Activation: RAT, LIVER, HEPATOCYTES) was “inactive; negative”; the mutagenic call (Test System: E. COLI, Strain/Indicator: WP2 (PKM101), Metabolic Activation: RAT LIVER S-9, PHENOBARBITAL AND 5,6-BENZOFLAVONE, Method: STANDARD PLATE) was “inactive; negative”. Further, the mutagenic call was “inactive; negative” (Test System: E. COLI, Strain/Indicator: WP2 UVRA (PKM101), Metabolic Activation: RAT LIVER S-9, PHENOBARBITAL AND 5,6-BENZOFLAVONE, Method: STANDARD PLATE) and “inactive; negative” (Test System: Mouse lymphoma, Strain/Indicator: L5178Y (tk+/tk-)/Trifluorothymidine, Metabolic Activation: None, Method: Microtiter).

In the case of `COc1ccc(O)c(C(C)(C)C)c1`, the mutagenic call reads like this: (Test System: AMES SALMONELLA TYPHIMURIUM, Strain/Indicator: TA97, Metabolic Activation: NONE, Method: PREINCUBATION) “inactive; negative”; (Test System: AMES SALMONELLA TYPHIMURIUM, Strain/Indicator: TA97, Metabolic Activation: RAT, LIVER, S-9, PCB, Method: PREINCUBATION) “inactive; negative”; under setting [1], “inactive; negative”; (Test System: AMES SALMONELLA TYPHIMURIUM, Strain/Indicator: TA98, Metabolic Activation: RAT, LIVER, S-9, PCB, Method: PREINCUBATION) “inactive; negative”; under setting [2], “inactive; negative”; (Test System: AMES SALMONELLA TYPHIMURIUM, Strain/Indicator: TA100, Metabolic Activation: RAT, LIVER, S-9, PCB, Method: PREINCUBATION) “inactive; negative”. Further, the mutagenic call by setting is: (Test System: AMES SALMONELLA TYPHIMURIUM, Strain/Indicator: TA102, Metabolic Activation: NONE, Method: PREINCUBATION) “inactive; negative”; (Test System: AMES SALMONELLA TYPHIMURIUM, Strain/Indicator: TA102, Metabolic Activation: RAT, LIVER, S-9, PCB, Method: PREINCUBATION) “inactive; negative”.

`Fc1ccc2cc3c(cc2c1)-c1cccc2cccc-3c12`: the mutagenic call under setting [6] is “active; positive”.
